# Values quoted from earlier work in patent US20070259016A1, “Method of treating crops with submicron chlorothalonil” (priority 2006, published 2007).
# Tests used:
# [1] = at 170 C.
# [2] = acid and neutral aqueous preparations
smiles,measurement,setting,value
"N#Cc1c(Cl)c(Cl)c(Cl)c(C#N)c1Cl [chlorothalonil, 2,4,5,6-tetrachloro-1,3-dicyanobenzene]",volatility,[1],9.2 mmHg
same,solubility in acetone and xylene,acetone and xylene,slightly soluble
same,solubility in water,water,0.6-1.2 ppm
same,stability in aqueous preparations,[2],relatively stable
